The results in this text go back to patent US20200223837A1, “BENZOFURAN AMIDES AND HETEROAROMATIC ANALOGUES THEREOF FOR USE IN THERAPY” (European Molecular Biology Laboratory, priority 2017, published 2020).

One data set relates to EGR1 promoter. The data set can be described thus: EGR1 reporter assay (luciferase) in genomically engineered HeLa cell line. The class given is cell-based. The settings on record: Homo sapiens; EGR1 reporter HeLa cells, luciferase activity after 24 hours with compound. The method, boiled down: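 HeLa cells with eGFP-P2A-luciferase knocked in by CRISPR behind the endogenous EGR1 promoter, seeded 2000/well in DMEM with 10% FCS for 24 h. Cells treated 24 h with an 11-point 1:3 series from 100 μM initial DMSO dilution. Readout: luciferase bioluminescence.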
A general note: Reporter assays use an easily measured gene product as a stand-in for the process of interest.

Data set [1] has as its system patient derived CLL samples. Put plainly: Growth inhibition of cells derived from patients with CLL. The class given is cell-based. The following applies: three days incubation, ATPlite. As for the experimental part: HeLa, A549 and HCT116 cells were grown in high-glucose Dulbecco's Modified Eagle's Medium (DMEM, Sigma)+10% FBS+1% penicillin and streptomycin+1% L-glutamine, at 37° C. with 5% CO2 and 95% humidity. Cytotoxic screening of the ProQinase panel of 100 cell-lines was performed by ProQinase (Freiburg, Germany). Patient derived CLL isolates were prepared and screened as described by Dietrich et al. (S. Dietrich et al., J Clin Invest, 2018, 128(1), 427-445). Cell viability was determined after 48 hours using the ATP-based CellTiter Glo assay (Promega). Luminescence was measured with a Tecan Infinite F200 Microplate Reader (Tecan Group AG) and with an integration time of 0.2 seconds per well.
The response of 97 tumour samples derived from patients with CLL was investigated. All samples tumor cells were obtained from whole blood, subjected to Ficoll-Isopaque density centrifugation. CD19+B and CD3+ T cells were isolated by positive magnetic cell separation (Miltenyi Biotec). Sorted cells were checked for purity by fluorescence-activated cell sorting (FACS) with CD19/CD20 for healthy control samples and CD19/CD20/CD5 for CLL samples (BD Biosciences). Following sorting, all samples with a CD19/CD20/CD5 purity <98% were subjected to additional sorting, and the average final purity of all sorted samples was >99%. CLL samples with >[…] were not subject to purification.
Cells are incubated for three days with an eight-point three-fold titration series of the test compound from an initial concentration of 30 μM (2000 cells per well in a volume of 50 μl). Cellular viability is estimated by the addition of 25 μL of ATPlite (Perkin Elmer) with the resulting luminescence measured using an EnVision Xcite plate reader (Perkin Elmer).
In addition, the growth inhibitory response of a selection of 27 patient derived CLL isolates (S. Dietrich et al., J Clin Invest, 2018, 128(1), 427-445) against the compounds of examples 64 and 85 was evaluated using the procedure as described above.
A general note: In ATP-based viability assays light output follows the ATP content of the culture.

The next data set concerns the target T1, pirin (Homo sapiens, UniProt O00625).
T1 sequence (O00625 1-290): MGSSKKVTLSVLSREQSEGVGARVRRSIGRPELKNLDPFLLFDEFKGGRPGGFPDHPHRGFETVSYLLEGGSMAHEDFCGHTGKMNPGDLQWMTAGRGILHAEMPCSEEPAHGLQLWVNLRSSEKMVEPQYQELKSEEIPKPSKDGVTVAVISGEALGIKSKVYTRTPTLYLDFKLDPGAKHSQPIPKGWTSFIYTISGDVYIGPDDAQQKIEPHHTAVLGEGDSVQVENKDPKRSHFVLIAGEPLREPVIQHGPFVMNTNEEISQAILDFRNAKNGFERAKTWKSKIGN
Put plainly: Surface plasmon resonance on immobilized pirin (Biacore). The class given is binding. Further details: hexahistidine tag (N); strep tag (C); host or cells: E. coli. The following applies: SPR, pirin on CM7 chip, PBS with 2% DMSO and 0.05% tween 20. The method, then:
A control chip was also prepared under identical condition but without including pirin in the reaction. […] A series of increasing concentrations of compound, either the control ThPA or a compound of the present invention is then applied to the pirin modified CM7 chip in phosphate buffered saline containing 2% DMSO and 0.05% tween 20 and sensorgrams are recorded covering the association, equilibrium and dissociation phases of the response.
Background: Surface plasmon resonance follows binding to a sensor surface in real time, without labels.

For `Cc1cccc2c(CC(=O)Nc3ncc(C(F)(F)F)s3)coc12` [Example 72, 2-(7-Methylbenzofuran-3-yl)-N-[5-(trifluoromethyl)thiazol-2-yl]acetamide], the EC50 in the data set on EGR1 promoter was 10 to 10000 nM. In data set [1] (45 of 97 samples), the “patient samples killed with an EC50 less than 10 μM” value is given as 46%. Moreover, the “patient derived CLL samples with cytotoxic effect” value in data set [1] (90 of 97 samples) is on record as 93%. For the same compound, the Kd at pirin was 1600 nM.

A word on the EC50: it is the midpoint of the concentration-response curve. As usually defined, the Kd is the constant that tells how readily two partners part at equilibrium.
